Assay results published in patent US20250179057A1, “MEK IMMUNE ONCOLOGY INHIBITORS AND THERAPEUTIC USES THEREOF” (Immuneering Corporation, priority 2022, published 2025).
“And” between values parts separate entries of the source, which are not always exact repeats. Equal entries are not always repeated.

Test system: phospho-ERK in A549 (KRAS G12S) cells
Assay: Cell-based pERK (pERK:tERK) in A549 cells
Design: A549-pERK 10 uM, 2 h: unit not given here
Conditions: for A549-pERK (10 nM, 2 h): phospho- to total protein ratio normalized to DMSO control (Table 9); for A549-pERK 10 uM, 2 h: phospho- to total protein ratio normalized to DMSO control; for pERK:tERK (10 nM 2 h A549): Phospho-ERK Screen in A549 (KRAS G12S), head 10 nM 2 h, title 10 μM for 2 hours
Experimental: Media components, reagents and buffers for Western Blot: All cell culture media components were obtained from ThermoFisher Scientific. […] Laemmli sample loading 4× buffer (ThermoFisher Scientific, Cat No. NP0007). MOPS/SDS electrophoresis running buffer (GenScript, Cat No. M00138).
Subculture conditions: Adherent cells were grown to approximately 90% confluency, culture medium was aspirated and the cell layer was rinsed with PBS. […] Eight mL media was added, cells were spun down at 1000×g for 5 minutes. Cell pellet was re-suspended in 10 mL media and an appropriate volume was inoculated into a new culture flask.
Compound (drug) treatment: Cells were plated in a 6-well plate at a density of 250,000-300,000 cells/well in 3 mL media and incubated 37° C. in a humidified, 5% CO2 incubator. […] These solutions were added to the cells (3 uL/well), mixed by swirling the plate, and incubated at 37° C. in a humidified, 5% CO2 incubator for 2 hours.
Cell lysis and protein estimation: Cells were washed with PBS, and scraped in 50 μL of lysis buffer containing protease and phosphatase inhibitors. Cell lysates were stored at −20° C. Cell lysates were thawed and spun at 12,000 rpm for one minute, 3 ul of the supernatant was added to 500 μL of Coomassie blue reagent following by 500 μL of water. […] Protein standards were used (0-20 mg/mL) to calculate protein concentrations of test samples.
All samples were heated at 95° C. for 5 minutes, cooled to room temperature and spun down. […] After the run, gel was removed and protein transfer was done using iBlot for 7 minutes, as per manufacturer's recommendations. After the transfer, nitrocellulose membrane was incubated on a shaker in 5 mL of blocking buffer at room temperature for 1 hr. The blot was then incubated overnight on a shaker in 5 ml of blocking buffer containing 0.2% Tween-20 and primary antibody, at room temperature. Anti-phospho-STAT3 antibody was used at a dilution of 1:500, the other 3 primary antibodies were used at a dilution of 1:1000.
Next day, the blot was washed 3 times for 10 min each with 10 mL of TBST followed by incubation on a shaker in 5 ml of blocking buffer containing 0.2% Tween-20 and 0.5 ul of the IRDye labeled secondary antibodies, diluted 1:10000, at room temperature for 1 hr. The blot was then washed 3 times for 10 min each with 10 mL of TBST and dried between sheets of paper towels. Imaging was done using LICOR's Odyssey imaging system, quantitation was done using their software, Image Studio version 3.1.
Materials and Methods: A549 or A375 cells were seeded in 6-well plates at an appropriate seeding density on day 0. On day 2 or 3, after checking the health and confluency of cells, the media was aspirated and replaced with 1 mL media containing a predetermined concentration of compound and incubated for 2 hours. After 2 hours, the media was aspirated, and the cells washed 2 times with cold PBS. Cells were lysed on ice, with 50 uL 1×CST lysis buffer +1 mM PMSF for 5 minutes. After 5 minutes, cells were removed using a scraper and transferred to cold 1.5 mL tubes, and centrifuged for 10 min, 4° C., 14,000×g. Supernatant was gently removed and snap frozen in liquid nitrogen. Protein concentration of the lysate was determined using Bradford Reagent (analyzed using SpectraMax M2E) and diluted to 1 mg/mL or pERK or 1.5 mg/mL for pMEK analysis. […] All dilutions were in Milk-free antibody diluent.
They were grown in T75 flasks in DMEM containing 10% FBS and Pen-Strep. at 37° C. in a humidified, 5% CO2 incubator. The adherent cells were grown to about 90% confluency, culture medium was aspirated, and the cell layer was rinsed with PBS. […] Eight mL media was added, cells were spun down at 1000 g for 5 minutes. Cell pellet was re-suspended in 10 mL media and an appropriate volume was inoculated into a new culture flask. Cells were plated in a 6-well plate at a density of 250,000-300,000 cells/well in 3 mL media and incubated 37° C. in a humidified, 5% CO2 incubator.

| SMILES | A549-pERK (10 nM, 2 h) | A549-pERK 10 uM, 2 h | pERK:tERK (10 nM 2 h A549) |
| --- | --- | --- | --- |
| C#CCNC(=O)CNCc1c(Cc2cccc(NS(=O)(=O)NC)c2F)c(=O)oc2cc(OC(=O)N(C)C)ccc12 [Compound 218] | 113 | 9.46 |  |
| CNS(=O)(=O)Nc1cccc(Cc2c(CNc3nccs3)c3ccc(OC(=O)N(C)C)cc3oc2=O)c1F [Compound 94] | 93.5 |  |  |
| C#CCN(C)Cc1c(Cc2cccc(NS(=O)(=O)NC)c2F)c(=O)oc2cc(OC(=O)N(C)C)ccc12 [Compound 76] | 62.1 |  |  |
| CNS(=O)(=O)Nc1cccc(Cc2c(CN3CCN(C)CC3)c3ccc(OC(=O)N(C)C)cc3oc2=O)c1F [Compound 15] | 73.8 |  |  |
| CNS(=O)(=O)Nc1cccc(Cc2c(CNCCCCO)c3ccc(OC(=O)N(C)C)cc3oc2=O)c1F [Compound 71] | 99.4 |  |  |
| CNS(=O)(=O)Nc1cccc(Cc2c(CNCc3ccncc3)c3ccc(OC(=O)N(C)C)cc3oc2=O)c1F [Compound 29] | 96 |  |  |
| CNS(=O)(=O)Nc1cccc(Cc2c(CNC(=O)c3nn[nH]n3)c3ccc(OC(=O)N(C)C)cc3oc2=O)c1F [Compound 213] | 100 | 70.14 |  |
| CNS(=O)(=O)Nc1cccc(Cc2c(CC(=O)N(C)C)c3ccc(OC(=O)N(C)C)cc3oc2=O)c1F [Compound 196] | 106 |  |  |
| CNS(=O)(=O)Nc1cccc(Cc2c(CN3CC4(COC4)C3)c3ccc(OC(=O)N(C)C)cc3oc2=O)c1F [Compound 152] | 70.5 |  |  |
| CNS(=O)(=O)Nc1cccc(Cc2c(CO)c3ccc(OC(=O)N(C)C)cc3oc2=O)c1F [Compound 180] | 75 |  |  |
| CNS(=O)(=O)Nc1cccc(Cc2c(CN3CC(C)C3)c3ccc(OC(=O)N(C)C)cc3oc2=O)c1F [Compound 142] | 94.6 |  |  |
| CNS(=O)(=O)Nc1cccc(Cc2c(CN(C)C)c3ccc(Oc4ncccn4)cc3oc2=O)c1F [Compound 129] | 92.2 |  |  |
| CNS(=O)(=O)Nc1cccc(Cc2c(CNC(=O)OCCO)c3ccc(OC(=O)N(C)C)cc3oc2=O)c1F [Compound 106] |  | 27.88 |  |
| CNS(=O)(=O)Nc1cccc(Cc2c(CNc3ccn[nH]3)c3ccc(OC(=O)N(C)C)cc3oc2=O)c1F [Compound 31] | 66.7 |  |  |
| CNS(=O)(=O)Nc1cccc(Cc2c(CNCC(=O)N(C)CC#N)c3ccc(OC(=O)N(C)C)cc3oc2=O)c1F [Compound 217] | 96.7 | 11.2 |  |
| CNS(=O)(=O)Nc1cccc(Cc2c(CNCC(=O)N(C)c3ccccc3)c3ccc(OC(=O)N(C)C)cc3oc2=O)c1F [Compound 220] | 109 | 4.28 |  |
| CNS(=O)(=O)Nc1cccc(Cc2c(CN(C)C)c3ccc(OC(=O)N4CCN(C)CC4)cc3oc2=O)c1F [Compound 127] | 110 |  |  |
| CNS(=O)(=O)Nc1cccc(Cc2c(CN3CC(Cl)C3)c3ccc(OC(=O)N(C)C)cc3oc2=O)c1F [Compound 145] | 104 |  |  |
| CNS(=O)(=O)Nc1cccc(Cc2c(CN3CCC4(CN(C)C4)C3)c3ccc(OC(=O)N(C)C)cc3oc2=O)c1F [Compound 159] | 82.7 |  |  |
| CNS(=O)(=O)Nc1cccc(Cc2c(CC(=O)N3CCN(C)CC3)c3ccc(OC(=O)N(C)C)cc3oc2=O)c1F [Compound 195] | 113 |  |  |
| CNS(=O)(=O)Nc1cccc(Cc2c(CNc3ccnn3C)c3ccc(OC(=O)N(C)C)cc3oc2=O)c1F [Compound 96] | 102 |  |  |

| SMILES | A549-pERK (10 nM, 2 h) | A549-pERK 10 uM, 2 h | pERK:tERK (10 nM 2 h A549) |
| --- | --- | --- | --- |
| CN(C)C(=O)Oc1ccc2c(CN3CCC3)c(Cc3ccnc(NS(=O)(=O)C4CC4)c3F)c(=O)oc2c1 [Compound 155] | 84.9 |  |  |
| CNS(=O)(=O)Nc1cccc(Cc2c(CN(C)c3ccccc3Cl)c3ccc(OC(=O)N(C)C)cc3oc2=O)c1F [Compound 99] | 98.9 |  |  |
| CC(C)CS(=O)(=O)Nc1cccc(Cc2c(CN3CCNCC3)c3cc(Cl)c(OC(=O)N(C)C)cc3oc2=O)c1F [Compound 168] |  |  | 50 (n = 2) and 53 (n = 2) |
| CNS(=O)(=O)Nc1cccc(Cc2c(CC(=O)N3CC(OC)C3)c3ccc(OC(=O)N(C)C)cc3oc2=O)c1F [Compound 216] | 89.5 | 4.51 |  |
| CNS(=O)(=O)Nc1cccc(Cc2c(CC(=O)N(C)CC#N)c3ccc(OC(=O)N(C)C)cc3oc2=O)c1F [Compound 198] | 109 |  |  |
| CNS(=O)(=O)Nc1cccc(Cc2c(CN3CC(N)C3)c3ccc(OC(=O)N(C)C)cc3oc2=O)c1F [Compound 165] | 104 |  |  |
| CNS(=O)(=O)Nc1cccc(Cc2c(CC(=O)Nc3ccon3)c3ccc(OC(=O)N(C)C)cc3oc2=O)c1F [Compound 201] | 119 |  |  |
| CNS(=O)(=O)Nc1cccc(Cc2c(CNc3ccc(OC)nc3)c3ccc(OC(=O)N(C)C)cc3oc2=O)c1F [Compound 193] | 90.7 |  |  |
| CNS(=O)(=O)Nc1cccc(Cc2c(CN3CCN(Cc4ccccc4)CC3)c3ccc(OC(=O)N(C)C)cc3oc2=O)c1F [Compound 16] | 91.6 |  |  |
| CNS(=O)(=O)Nc1cccc(Cc2c(CN3CCN(S(C)(=O)=O)CC3)c3ccc(OC(=O)N(C)C)cc3oc2=O)c1F [Compound 68] | 68.9 |  |  |
| CCN(CC)C(=O)Oc1ccc2c(CN(C)C)c(Cc3cccc(NS(=O)(=O)NC)c3F)c(=O)oc2c1 [Compound 126] | 91.4 |  |  |
| CNS(=O)(=O)Nc1cccc(Cc2c(CNCC(=O)Nc3ccccc3)c3ccc(OC(=O)N(C)C)cc3oc2=O)c1F [Compound 223] | 119 | 3.04 |  |
| CNS(=O)(=O)Nc1cccc(Cc2c(CN3CCN(C(=O)c4ccccc4)CC3)c3ccc(OC(=O)N(C)C)cc3oc2=O)c1F [Compound 65] | 100 |  |  |
| CCC(=O)NCc1c(Cc2cccc(NS(=O)(=O)NC)c2F)c(=O)oc2cc(OC(=O)N(C)C)ccc12 [Compound 207] | 97.4 | 11.35 |  |
| CNS(=O)(=O)Nc1cccc(Cc2c(CNCCN(C)C)c3ccc(OC(=O)N(C)C)cc3oc2=O)c1F [Compound 58] | 98.7 and 108 |  |  |
| CNS(=O)(=O)Nc1cccc(Cc2c(CNC(=O)C(C)(C)O)c3ccc(OC(=O)N(C)C)cc3oc2=O)c1F [Compound 212] | 100 | 13.03 |  |
| CNS(=O)(=O)Nc1cccc(Cc2c(CCNCC3CC3)c3ccc(OC(=O)N(C)C)cc3oc2=O)c1F [Compound 186] | 80.1 | 0.74 |  |
| CNS(=O)(=O)Nc1cccc(Cc2c(CNc3ccn(C)n3)c3ccc(OC(=O)N(C)C)cc3oc2=O)c1F [Compound 89] | 83.7 |  |  |
| CNS(=O)(=O)Nc1cccc(Cc2c(CNCc3cccc(C(F)(F)F)c3)c3ccc(OC(=O)N(C)C)cc3oc2=O)c1F [Compound 59] | 105 |  |  |
| CNS(=O)(=O)Nc1cccc(Cc2c(CN3CC(C(N)=O)C3)c3ccc(OC(=O)N(C)C)cc3oc2=O)c1F [Compound 173] | 97.7 |  |  |
| CCN(C)Cc1c(Cc2cccc(NS(=O)(=O)NC)c2F)c(=O)oc2cc(OC(=O)N(C)C)c(F)cc12 [Compound 261, 4-((ethyl(methyl)amino)methyl)-6-fluoro-3-(2-fluoro-3-((N-methylsulfamoyl)amino)benzyl)-2-oxo-2H-chromen-7-yl dimethylcarbamate] |  |  | 68 |
